Laboratory results reported in ChEMBL document CHEMBL1201862, “PubChem BioAssay data set” (2004).
Where “and” joins values, the source holds several entries; their conditions need not be identical. Equal values may be shown once.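 Each compound was tested at five concentrations against cells in 96-well plates for 48 hours. At the GI50, growth is halved.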 Calls of active or inactive are those of the source. Rule as the data show it: active = GI50 up to about 1.1 µM and inactive = higher. Non-standard residues stand in square brackets, D forms with d. Residues, ends and D or L forms follow the SMILES beside them. ξ: configuration not given here. *: point of attachment. NMeF = CN[C@@H](Cc1ccccc1)C(=O)O; ξNMeV = CNC(C(=O)O)C(C)C; Boc = CC(C)(C)OC(=O)*; OBn = c1ccc(CO*)cc1

Columns and labels:
Assay in all cases: growth of human tumour cells (NCI), 48 h
OVCAR-8 = system: OVCAR-8
HCT-116 = system: HCT-116
SNB-78 = system: SNB-78
CAKI-1 = system: CAKI-1
SF-268 = system: SF-268
LOX IMVI = system: LOX IMVI
EKVX = system: EKVX
SK-MEL-2 = system: SK-MEL-2
TK-10 = system: TK-10
SN12C = system: SN12C
SNB-19 = system: SNB-19
A498 = system: A498
KM12 = system: KM12
IGROV-1 = system: IGROV-1
SNB-75 = system: SNB-75
HCC 2998 = system: HCC 2998
SK-MEL-28 = system: SK-MEL-28

Measured: GI50

C=CCn1c(=S)sc2c(O)ncnc21
inactive: OVCAR-8 > 100 µM | HCT-116 > 100 µM | SNB-78 > 100 µM | CAKI-1 > 100 µM | SF-268 > 100 µM | LOX IMVI > 100 µM | EKVX > 100 µM | SK-MEL-2 > 100 µM | TK-10 > 100 µM | SN12C > 100 µM | SNB-19 > 100 µM | A498 > 100 µM | KM12 > 100 µM | IGROV-1 > 100 µM | SNB-75 61.2 µM | HCC 2998 > 100 µM

COC(=O)C(Cc1nc2ccccc2nc1C)/C(=N\NC(N)=O)C(=O)Nc1cccc([N+](=O)[O-])c1 (configuration not stated)
inactive: OVCAR-8 80.7 µM | HCT-116 > 100 µM | SNB-78 > 100 µM | CAKI-1 > 100 µM | SF-268 64.9 µM | SK-MEL-28 > 100 µM | LOX IMVI > 100 µM | EKVX > 100 µM | SK-MEL-2 > 100 µM | TK-10 > 100 µM | SN12C > 100 µM | SNB-19 > 100 µM | A498 > 100 µM | KM12 95.9 µM | IGROV-1 > 100 µM | SNB-75 > 100 µM | HCC 2998 > 100 µM

Cc1ccc(N2C(=O)/C(=C3\Sc4c(nc(C)[nH]c4=O)N3c3ccccc3)SC2=S)cc1
inactive: OVCAR-8 34.6 µM | HCT-116 60.3 µM | SNB-78 39 µM | CAKI-1 > 100 µM | SF-268 75.2 µM | SK-MEL-28 > 100 µM | LOX IMVI 15.5 µM | EKVX 91.8 µM | SK-MEL-2 20.3 µM | TK-10 24 µM | SN12C > 100 µM | SNB-19 37.3 µM | A498 34.4 µM | IGROV-1 60.3 µM | SNB-75 16.1 µM

CN(c1nc(=[N+](C)C)ss1)C1CCCCC1
inactive: OVCAR-8 > 100 µM | HCT-116 > 100 µM | SNB-78 > 100 µM | CAKI-1 > 100 µM | SF-268 60.1 µM | SK-MEL-28 > 100 µM | LOX IMVI > 100 µM | EKVX > 100 µM | SK-MEL-2 > 100 µM | TK-10 > 100 µM | SN12C > 100 µM | SNB-19 70.5 µM | A498 > 100 µM | KM12 58.5 µM | IGROV-1 > 100 µM | SNB-75 > 100 µM | HCC 2998 > 100 µM

C=CCCCCCC(O)C(O)C/C=C\C/C=C\CC (configuration not stated)
inactive: OVCAR-8 > 18.8 µM | HCT-116 > 18.8 µM | SNB-78 > 18.8 µM | CAKI-1 > 18.8 µM | SF-268 > 18.8 µM | SK-MEL-28 > 18.8 µM | LOX IMVI > 15.4 µM | EKVX > 18.8 µM | SK-MEL-2 > 18.8 µM | TK-10 > 18.8 µM | SN12C > 18.8 µM | SNB-19 > 18.8 µM | KM12 > 18.8 µM | IGROV-1 > 18.8 µM | SNB-75 > 18.8 µM | HCC 2998 > 18.8 µM

Clc1cc2n[se]nc2cc1Cl
inactive: OVCAR-8 > 100 µM | HCT-116 > 100 µM | SNB-78 > 100 µM | CAKI-1 > 100 µM | SF-268 > 100 µM | SK-MEL-28 > 100 µM | LOX IMVI > 100 µM | EKVX > 100 µM | SK-MEL-2 > 100 µM | TK-10 > 100 µM | SN12C > 100 µM | SNB-19 > 100 µM | A498 > 100 µM | KM12 > 100 µM | IGROV-1 > 100 µM | SNB-75 36.1 µM | HCC 2998 > 100 µM

COc1cccc2c(SCC(=O)Nc3ccccc3-c3ccccc3NC(=O)CSc3c4ccccc4nc4c(OC)cccc34)c3ccccc3nc12
inactive: OVCAR-8 > 100 µM | HCT-116 > 100 µM | SNB-78 > 100 µM | SF-268 45.4 µM | SK-MEL-28 > 100 µM | EKVX 21.7 µM | SK-MEL-2 > 100 µM | TK-10 > 100 µM | SN12C > 100 µM | SNB-19 > 100 µM | KM12 > 100 µM | IGROV-1 43.1 µM | SNB-75 17.5 µM | HCC 2998 > 100 µM

CCCC(N)C(=O)c1ccccc1 (configuration not stated)
inactive: OVCAR-8 > 100 µM | HCT-116 > 100 µM | SNB-78 > 100 µM | CAKI-1 > 100 µM | SF-268 > 100 µM | SK-MEL-28 > 100 µM | LOX IMVI > 100 µM | EKVX > 100 µM | SK-MEL-2 > 100 µM | TK-10 > 100 µM | SN12C > 100 µM | SNB-19 > 100 µM | A498 > 100 µM | KM12 > 100 µM | IGROV-1 > 100 µM | SNB-75 > 100 µM | HCC 2998 > 100 µM

COc1ccc2nc3cc(Cl)ccc3c(Sc3ccc([N+](=O)[O-])cc3C)c2c1
inactive: OVCAR-8 > 100 µM | HCT-116 > 100 µM | SNB-78 > 100 µM | CAKI-1 > 100 µM | SF-268 > 100 µM | SK-MEL-28 > 100 µM | LOX IMVI > 100 µM | EKVX > 100 µM | SK-MEL-2 > 100 µM | TK-10 > 100 µM | SN12C 74.3 µM | SNB-19 > 100 µM | A498 > 100 µM | KM12 > 100 µM | IGROV-1 > 100 µM | SNB-75 > 100 µM | HCC 2998 > 100 µM

Nc1ccc(C(=O)O)c2[nH]c3ccccc3c(=O)c12
inactive: OVCAR-8 > 100 µM | HCT-116 > 100 µM | SNB-78 > 100 µM | CAKI-1 > 100 µM | SF-268 > 100 µM | LOX IMVI > 100 µM | SK-MEL-2 > 100 µM | TK-10 > 100 µM | SN12C > 100 µM | SNB-19 > 100 µM | A498 > 100 µM | KM12 > 100 µM | IGROV-1 > 100 µM | SNB-75 31.9 µM | HCC 2998 > 100 µM

CC1=C(C(=O)Nc2c(C)cccc2C)C(c2ccc3c(c2)OCO3)C(C(=O)Nc2c(C)cccc2C)=C(C)N1
inactive: OVCAR-8 18.1 µM | HCT-116 14.3 µM | SNB-78 17.6 µM | CAKI-1 25.1 µM | SF-268 19.4 µM | SK-MEL-28 22.2 µM | LOX IMVI 13.7 µM | EKVX 21.5 µM | TK-10 24.7 µM | SN12C 16.7 µM | SNB-19 15.3 µM | KM12 15.3 µM | IGROV-1 4.2 µM | SNB-75 17.8 µM | HCC 2998 18.1 µM

O=S(O)CCCCSSCC(O)C(O)CSSCCCCS(=O)O (configuration not stated)
inactive: OVCAR-8 30.1 µM and 22.2 µM | SNB-78 18.2 µM and 20.9 µM | CAKI-1 51.6 µM and 56.9 µM | SF-268 17.5 µM and 12.2 µM | SK-MEL-28 21.6 µM and 14.9 µM | LOX IMVI 15.4 µM and 10.8 µM | EKVX 26.9 µM and 33.4 µM | SK-MEL-2 17.4 µM and 15 µM | TK-10 68.2 µM and 53.8 µM | SN12C 40.5 µM and 34.9 µM | SNB-19 50 µM and 55.6 µM | A498 64.3 µM and 61.9 µM | KM12 21.2 µM and 15 µM | IGROV-1 83.6 µM and 44.5 µM | SNB-75 12 µM and 17.3 µM

CCN(CC)CCCCC1CCN(CC(=O)N2c3ccccc3NC(=O)c3ccccc32)CC1
inactive: OVCAR-8 > 100 µM | HCT-116 > 100 µM | SNB-78 > 100 µM | CAKI-1 > 100 µM | SF-268 > 100 µM | SK-MEL-28 > 100 µM | EKVX > 100 µM | SK-MEL-2 > 100 µM | TK-10 > 100 µM | SN12C > 100 µM | SNB-19 > 100 µM | A498 > 100 µM | KM12 > 100 µM | SNB-75 > 100 µM | HCC 2998 > 100 µM

[N-]=[N+]=NC1C(Cl)C(=O)NC(=O)N1[C@H]1C[C@H](O)[C@@H](CO)O1 (some centres not stated)
inactive: OVCAR-8 > 100 µM | SNB-78 > 100 µM | CAKI-1 > 100 µM | SK-MEL-28 > 100 µM | LOX IMVI > 100 µM | EKVX > 100 µM | SK-MEL-2 > 100 µM | TK-10 > 100 µM | SN12C > 100 µM | SNB-19 > 100 µM | A498 > 100 µM | KM12 > 100 µM | IGROV-1 > 100 µM | SNB-75 > 100 µM | HCC 2998 > 100 µM

CC1CCCCc2nc3c(c(=O)n21)CCCC3 (configuration not stated)
inactive: OVCAR-8 63.2 µM | HCT-116 > 100 µM | SNB-78 > 100 µM | CAKI-1 > 100 µM | SF-268 > 100 µM | SK-MEL-28 > 100 µM | LOX IMVI > 100 µM | SK-MEL-2 > 100 µM | TK-10 > 100 µM | SN12C > 100 µM | SNB-19 > 100 µM | KM12 > 100 µM | IGROV-1 > 100 µM | SNB-75 > 100 µM | HCC 2998 > 100 µM

CC(C)C(C(=O)N1CCC[C@@H]1C(=O)OCc1ccccc1)N(C)C(=O)C(C(C)C)N(C)C(=O)[C@H](Cc1ccccc1)N(C)C(=O)[C@H](NC(=O)OC(C)(C)C)C(C)C (some centres not stated) (Boc-[dV][NMeF][ξNMeV][ξNMeV][dP]-OBn)
inactive: OVCAR-8 > 100 µM | HCT-116 14.5 µM | SNB-78 > 100 µM | SF-268 > 86.1 µM | SK-MEL-28 > 100 µM | LOX IMVI > 60.3 µM | EKVX > 65.8 µM | SK-MEL-2 > 100 µM | TK-10 > 100 µM | SN12C > 100 µM | SNB-19 > 100 µM | A498 > 100 µM | KM12 > 80.7 µM | IGROV-1 > 100 µM | SNB-75 9.91 µM | HCC 2998 > 100 µM
